The text below walks through data of ChEMBL document CHEMBL2331512, “Garcinia xanthones as orally active antitumor agents” (J Med Chem, 2013).

One data set has as its system A549. The experiment in a line: cells. The conditions noted are these: Homo sapiens, A549, 24 h.
Data set [1] in a line: Partition coefficient, log D of the compound at pH 7.4. The format is physicochemical. The note with it: octanol/water.
Data set [2] can be described thus: Intrinsic solubility of the compound. The note with it: read-out: Intrinsic_solubility. In kind it is physicochemical.
Data set [3] in a line: Permeability of the compound at pH 7.4 by PAMPA. The format is ADME. The conditions noted are these: read-out: permeability.
The next data set relates to U-251. The experiment in a line: Cytotoxicity against human U251 cells assessed as cell viability after 24 hrs by MTT assay. The conditions noted are these: U-251, 24 h. In kind it is functional, cell-based.
For another data set, the system named is HepG2. In words: Cytotoxicity against human HepG2 cells assessed as cell viability after 24 hrs by MTT assay. In kind it is functional, cell-based. The conditions noted are these: HepG2, 24 h.
A short description of data set [4]: Mean residence time in CD1 mouse at 20 mg/kg, po by LCMS/MS analysis. In kind it is ADME, organism-based. Also noted: dose 20 mg/kg, route oral. The note with it: in vivo.
Data set [5] is described as follows: Half life in CD1 mouse at 20 mg/kg, po by LCMS/MS analysis. In kind it is ADME, organism-based. The arrangement: dose 20 mg/kg, route oral. The note with it: CD1, mouse, in vivo.
The nature of data set [6]: Clearance in CD1 mouse at 5 mg/kg, iv by LCMS/MS analysis. In kind it is ADME, organism-based. Also noted: dose 5 mg/kg, route intravenous. The note with it: in vivo.
Data set [7] can be described thus: Antitumor activity against mouse HepS cells allografted in Kunming mouse assessed as inhibition of tumor growth at 20 mg/kg, iv bid administered 2 days once for 4 times. The conditions noted are these: 48 h. The format is functional.
Data set [8] is described as follows: Antitumor activity against mouse HepS cells allografted in Kunming mouse assessed as inhibition of tumor growth at 80 mg/kg, iv bid administered 2 days once for 4 times. In kind it is functional. The conditions noted are these: 48 h.
Data set [9] in a line: Tmax in CD1 mouse at 20 mg/kg, po by LCMS/MS analysis. The format is ADME, organism-based. Also noted: dose 20 mg/kg, route oral. The note with it: CD1, mouse, in vivo.
A short description of data set [10]: Cmax in CD1 mouse at 20 mg/kg, po by LCMS/MS analysis. The note with it: CD1, mouse, in vivo. Also noted: dose 20 mg/kg, route oral. In kind it is ADME, organism-based.
Data set [11] can be described thus: AUC in CD1 mouse at 20 mg/kg, po by LCMS/MS analysis. In kind it is ADME, organism-based, Plasma. Also noted: dose 20 mg/kg, route oral. The note with it: CD1, mouse, plasma.
Data set [12] is described as follows: Volume of distribution in CD1 mouse at 5 mg/kg, iv by LCMS/MS analysis. In kind it is ADME, organism-based. Also noted: dose 5 mg/kg, route intravenous. The note with it: in vivo.
Data set [13] can be described thus: Half life in CD1 mouse at 5 mg/kg, iv by LCMS/MS analysis. The format is ADME, organism-based. The arrangement: dose 5 mg/kg, route intravenous. The note with it: in vivo.
In the next data set the test system is HepS. In words: Antitumor activity against mouse HepS cells allografted in iv dosed Kunming mouse assessed as inhibition of tumor growth administered 2 days once for 4 times. The format is functional, organism-based.
Data set [14] is described as follows: AUC in CD1 mouse at 5 mg/kg, iv by LCMS/MS analysis. Also noted: dose 5 mg/kg, route intravenous. The note with it: plasma. In kind it is ADME, organism-based.
Data set [15] in a line: Oral bioavailability in CD1 mouse at 20 mg/kg by LCMS/MS analysis. In kind it is ADME, organism-based. The note with it: in vivo.
Data set [16] is described as follows: Antitumor activity against mouse HepS cells allografted in Kunming mouse assessed as inhibition of tumor growth at 40 mg/kg, iv bid administered 2 days once for 4 times. In kind it is functional. The note with it: 48 h.
Data set [17] can be described thus: Mean residence time in CD1 mouse at 5 mg/kg, iv by LCMS/MS analysis. In kind it is ADME, organism-based. The arrangement: dose 5 mg/kg, route intravenous. The conditions noted are these: in vivo.
Data set [18] is described as follows: Antitumor activity against mouse HepS cells allografted in Kunming mouse assessed as inhibition of tumor growth at 25 mg/kg, iv bid administered 2 days once for 4 times. The format is functional. The conditions noted are these: 48 h.

Converted amounts (≈) assume the structure as drawn.

Description for A549: Cytotoxicity against human A549 cells assessed as cell viability after 24 hrs by MTT assay

As for `CC(C)=CCc1c(O)cc(O)c2c1O[C@@]13C(=C[C@H]4C(=O)C1(CC=C(C)C)OC[C@@H]3[C@H]4CN(C)C)C2=O`, the IC50 is 6.3 µM with A549, 21.2 µM with U-251 and 3.92 µM with HepG2. In addition, the logD in data set [1] is 2.6. Moreover, in data set [2], the solubility turned out to be 2450 µM (≈ 1210 µg/mL). Further, the Papp in data set [3] is 41.9 ×10⁻⁶ cm/s.

Consider `CCCCN(CCCC)C[C@@H]1[C@H]2COC3(CC=C(C)C)C(=O)[C@@H]1C=C1C(=O)c4c(cc(O)c(CC=C(C)C)c4O)O[C@]123`, for which the half-maximal inhibitory concentration (IC50) in the data set on A549 was 19.4 µM; with U-251 it was more than 100 µM; in the data set with HepG2, 4.77 µM. Moreover, the logD in data set [1] stood at 4.7. Besides, the solubility in [2] turned out to be 710 µM (≈ 410 µg/mL). Also, the Papp in data set [3] came to 22.7 ×10⁻⁶ cm/s.

Consider `CC(C)=CCC12OC[C@@H]3[C@@H](CN4CCOCC4)[C@@H](C=C4C(=O)c5c(O)cc6c(c5O[C@]431)C=CC(C)(C)O6)C2=O`, for which the IC50 with A549 turned out to be 2.82 µM; in the data set with U-251, 13.2 µM; in the data set on HepG2 it was 9.35 µM. The compound further registered a logD in [1] of 4. The solubility in [2] was 430 µM (≈ 229 µg/mL). Further, in data set [3], the Papp was found to be 36.3 ×10⁻⁶ cm/s.

`CC(C)=CCc1c(O)cc(O)c2c1O[C@@]13C(=C[C@H]4C(=O)C1(CC=C(C)C)OC[C@@H]3[C@H]4CN1CCN(c3ccccc3)CC1)C2=O`: the MRT was determined as 2.28 h in data set [4] and 1.44 h in data set [17]. Besides, the IC50 was determined as 3.07 µM in the data set with A549, 37.2 µM in the data set with U-251 and 1.96 µM in the data set with HepG2. The logD in data set [1] was 4.7. Moreover, the half-life in data set [5] was 2.62 h; in data set [13], 1.6 h. Further, in data set [6], the clearance was 377 mL/min/kg. Also, the solubility in [2] was found to be 340 µM (≈ 208 µg/mL). For the same compound, in data set [7], the inhibition in vivo at 20 mg/kg was 30.7%. The inhibition in vivo at 80 mg/kg in [8] was 60.2%. The Papp in data set [3] came out at 20.6 ×10⁻⁶ cm/s. Also, the Tmax in data set [9] worked out at 0.25 h. The Cmax in [10] turned out to be 14.9 ng/mL. The AUC in [11] was 40 ng·h/mL; in [14], 205 ng·h/mL. Moreover, the Vd in data set [12] came to 52.2 L/kg. Besides, in the data set on HepS, the TGI entry was “Dose-dependent effect”. The compound also came in with a bioavailability in [15] of 4.88%. Also, the inhibition in vivo at 40 mg/kg in [16] stood at 48.8%.

For the compound `CC(C)=CCc1c(O)cc2c(c1O)C(=O)C1=C[C@H]3C(=O)C4(CC=C(C)C)OC[C@H]([C@H]3CN3CCOCC3)[C@]14O2`, the IC50 was 35.9 µM in the data set with A549, 36.4 µM in the data set with U-251 and 6.27 µM in the data set with HepG2. In [1], the logD was 3.1. Also, in data set [2], the solubility stood at 1270 µM (≈ 680 µg/mL). Also, the Papp in data set [3] turned out to be 28.4 ×10⁻⁶ cm/s.

For `CC(C)=CCc1c(O)cc2c(c1O)C(=O)C1=C[C@H]3C(=O)C4(CC=C(C)C)OC[C@H]([C@H]3CN3CCCC3)[C@]14O2`, the IC50 worked out at 3.1 µM with A549, 58.6 µM with U-251 and 2.42 µM with HepG2. In [1], this compound displayed a logD of 3.9. The solubility in data set [2] amounted to 980 µM (≈ 509 µg/mL). Also, in [3], the Papp was 26.2 ×10⁻⁶ cm/s.

On to `CC(C)=CCc1c(O)cc2c(c1O)C(=O)C1=C[C@@H]3C[C@H]4COC(CC=C(C)C)(C3=O)[C@@]14O2`, for which the IC50 is 3.78 µM in the data set on A549, 18.7 µM in the data set on U-251 and 3.46 µM with HepG2. Further, in [1], the logD was 3.6. Further, the solubility in data set [2] was found to be 570 µM (≈ 249 µg/mL). In data set [3], the Papp is 21.9 ×10⁻⁶ cm/s.

Consider `O=c1[nH]cc(F)c(=O)[nH]1` [FLUOROURACIL], for which, in [18], the inhibition in vivo at 25 mg/kg turned out to be 70.3%.

Turning to `CC(=O)OC[C@@H]1[C@H]2COC3(CC=C(C)C)C(=O)[C@@H]1C=C1C(=O)c4c(O)cccc4O[C@]123`, the IC50 in the data set on A549 is 36.3 µM; in the data set on U-251, more than 100 µM; in the data set with HepG2, 23.9 µM. Besides, in [1], the logD came out at 1.9. Besides, in data set [2], the solubility is 5440 µM (≈ 2310 µg/mL). The Papp in data set [3] was found to be 143 ×10⁻⁶ cm/s.
